Test results from article PMC12695667 (Nature, 2025).
Where “and” joins values, the source holds several entries; their conditions need not be identical. Equal entries are not always repeated.

Key:
[1] = tested on: C57BL/6J mouse dorsal skin; assay type: in vivo, C57BL/6J mice
Excerpt: The dorsal skin of male C57BL/6J mice was exposed using depilatory cream and cleaned using PBS. A diffusing cell of 1.13 cm^2 was attached onto the dorsal skin. […] After timed topical administration, the mice were euthanized. The treated skin sites were washed and dissected. The entire skin samples were carefully washed three times with PBS, fixed with 4% paraformaldehyde (PFA) solution and sectioned into 10-μm-thick slices using a cryostat (UV800, Leica Microsystems). 4′,6-Diamidino-2′-phenylindole (DAPI) was used to stain and label the nuclei of skin tissues, and BODIPY was used to stain and localize subcutaneous fat deposits. […] The CLSM images were analysed using ImageJ.

[2] = target: insulin receptor extracellular domains, His-tagged; experiment: SPR; Biacore X100, CM5 chip; anti-His antibody immobilised, His-tag-ECD-IR captured on it; insulin (9.75-156 nM) or OP-I (4.06-65.0 nM) injected in HEPES running buffer pH 7.4, single-cycle kinetics, 180 s binding and 300 s dissociation, flow 30 ul/min
[3] = tested on: STZ-induced type 1 diabetic mice; experiment: Blood glucose levels in STZ-induced diabetic mice; assay type: in vivo, C57BL/6J mice; details: for Effect on BGLs, topical: topical 116 U kg^−1, 1.13 cm^2 dorsal skin
Method: Type 1 diabetic mice were established through intraperitoneal delivery of STZ (150 mg per kg in 10 mg ml^−1 disodium citrate buffer, pH 4.5) into healthy male C57BL/6J mice (aged 6–8 weeks, ~25 g). BGLs were monitored, and the mice with BGLs exceeding 300 mg dl^−1 were considered diabetic. Diabetic mice with fasting BGLs within the 300 to 600 mg dl^−1 range were selected for the experiments. BGLs were measured from tail-vein blood (around 3 μl) using a calibrated Sinocare glucose meter.
BGLs were measured at timed intervals. […] The diabetic mice were subjected to a fasting period of 12 h during the experimental procedures.

[4] = tested on: STZ-induced diabetic mice; experiment: Intraperitoneal glucose tolerance test (IPGTT) in diabetic mice; assay type: in vivo, C57BL/6J mice; parameters: Area under the IPGTT blood glucose curve: unit not given here; details: for Area under the IPGTT blood glucose curve: Fig. 3h, 0-120 min; for BGL after intraperitoneal glucose administration (IPGTT): diabetic mice, topical 116 U kg^−1, glucose 1.5 g per kg i.p., hyperglycaemic state maintained
Method: BGLs were monitored over time. The diabetic mice were subjected to a fasting period of 3 h during the experimental procedures.

[5] = tested on: STZ-induced diabetic minipigs; experiment: Blood glucose levels in STZ-induced diabetic minipigs (CGMS); assay type: in vivo, Guangxi Bama minipigs; details: cream, 29 U kg^−1
Method: Guangxi Bama minipigs (aged 6 months; weight, 35–40 kg) were infused with STZ in freshly prepared disodium citrate buffer (75 mg ml^−1, pH 4.5) at a 150 mg per kg dose within 10 min and then maintained for recovery. The glucose levels were monitored using CGMS[15] (Dexcom G4 Platinum Continuous Glucose Monitor System, Dexcom). A BGL that is constantly higher than 250 mg dl^−1 indicates the successful establishment of the insulin-deficient diabetic minipig model.
The cream was topically applied onto the minipig abdominal skin at an insulin-equivalent dose of 40 mg or 10 mg (n = 3 for each group). The area with the cream was wrapped with plastic film. The BGLs of minipigs were continuously monitored using the CGMS. The diabetic minipigs were subjected to a fasting period of 12 h during the experimental procedures.

[6] = tested on: HaCat spheroids; experiment: Penetration in 3D-cultured multilayer HaCat spheroids (with or without endocytosis/exocytosis inhibitors); assay type: cell-based, human; details: FITC-eq 1 μg ml^−1, 12 h
Method: Multilayer cell spheroids were prepared using the hanging-drop method. […] The cell suspensions (25 μl) were dropped onto the lids of the cell culture plate to form uniform droplets, and 20 ml PBS was added to the plate to keep the droplets moist. The cells were incubated for 72 h and formed dense spheroids, which were transferred to an agarose-coated (1% (w/v) in PBS) 96-well plate with one spheroid per well and incubated for another 72 h to mature. […] The spheroids were washed with PBS and imaged using CLSM by z-stack tomoscan at 20 μm intervals from the bottom to the middle of the spheroids. The integration of FITC fluorescence density and linescan analysis were performed using Image J.
The HaCat spheroids were imaged and analysed as described above.
Spheroids were pre-treated with the indicated inhibitors for 4 h, followed by incubation with
The images are representative of n = 3 independent
experiments. b, Line-scan analysis of FITC fluorescence along a randomly selected line (yellow
(1 picture or pasted object on this page, not shown here)

[7] = tested on: phosphorylated IRβ/IGF1Rβ; experiment: Western blotting for insulin signalling, pIR/IR in skeletal muscle; assay type: in vivo, mouse; details: STZ-diabetic mice, 1 h after s.c. 5 U/kg, western blot, individual mice, n = 3
Method: (§1) The mice were euthanized, and their skeletal muscle tissues were collected at 1 h after subcutaneous injection or 4 h after topical administration. Muscle samples were weighed and lysed in radioimmunoprecipitation buffer (Sigma-Aldrich) containing protease and phosphatase inhibitors (Thermo Fisher Scientific) and incubated on ice for 30 min. The lysates were centrifuged at 20,000g for 20 min at 4 °C and quantified using the BCA protein assay. […] The membranes were blocked in Tris-buffered saline with 0.5% Tween-20 (TBST) and 5% BSA for 1 h, followed by overnight incubation at 4 °C with primary antibodies against phosphorylated IRβ/IGF1Rβ (1:1,000), phosphorylated AKT-Thr308 (1:1,000) or GAPDH (1:5,000). After washing three times with TBST, the membranes were incubated with horseradish-peroxidase-conjugated secondary antibodies (HRP-labelled goat anti-rabbit IgG (H+L) or HRP-labelled Goat Anti-Mouse IgG (H+L)) at a dilution of 1:1,000 at room temperature for 1 h. Signal detection was performed using Immobilon Forte chemiluminescence substrate on the ChemiScope 3600 Mini Imaging System (Clinx Science Instruments). […]
(§2) control. The blots are representative of n = 3 independent experiments . b, Quantification of pIR and pAKT levels. […]

[8] = tested on: phosphorylated AKT-Thr308; experiment: Western blotting for insulin signalling, pAKT/AKT in skeletal muscle; assay type: in vivo, mouse; details: STZ-diabetic mice, 1 h after s.c. 5 U/kg, individual mice, n = 3
Method: as §1, §2

Row | Compound | Effect on BGLs, topical [3] | Area under the IPGTT blood glucose curve ([4]; replicate 1) | Area under the IPGTT blood glucose curve ([4]; replicate 2) | Area under the IPGTT blood glucose curve ([4]; replicate 3) | Area under the IPGTT blood glucose curve ([4]; replicate 4) | Area under the IPGTT blood glucose curve ([4]; replicate 5) | BGL after intraperitoneal glucose administration (IPGTT) [4] | Effect of topical treatment on minipig BGLs [5] | Fluorescence of HaCat spheroids (CLSM) [6] | also measured
1 | CCN1/C(=C/C=C/C=C/C2=[N+](CCCCCC(=O)O)c3ccc(S(=O)(=O)O)cc3C2(C)C)C(C)(C)c2cc(S(=O)(=O)[O-])ccc21 [free Cy5] |  |  |  |  |  |  |  |  |  | Transdermal permeability of free label [1]: no detectable transdermal permeability
2 | OP-conjugated insulin (insulin conjugated to poly[2-(N-oxide-N,N-dimethylamino)ethyl methacrylate]) |  |  |  |  |  |  |  |  |  | koff [2]: 0.0053 s⁻¹; kon [2]: 204000 M⁻¹ s⁻¹
3 | PEG–I: PEGylated insulin, PEG molecular mass of 5 kDa, used as a control | negligible effect on BGLs | 63110 | 52617 | 56133 | 51381 | 44798 | around 600 mg dl^−1 | almost no obvious changes in minipig BGLs |  | 
4 | PEG–I^FITC: FITC-labelled PEG–I |  |  |  |  |  |  |  |  | only weak fluorescence | 
5 | insulin: Human recombinant insulin (29 U mg^−1, I8830, Solarbio) [reference compound] | negligible effect on BGLs | 55359 | 62309 | 59228 | 59472 | 58535 | around 600 mg dl^−1 | almost no obvious changes in minipig BGLs |  | PIR/IR [7]: 0.1659 and 0.2361 and 0.221; pAKT/AKT [8]: 0.4051 and 0.6287 and 0.4302; BGL after rebound within 4 h ([3]; s.c. 5 U kg^−1): around 400 mg dl^−1; BGL reached within 1 h ([3]; s.c. 5 U kg^−1, from around 400): ~100 mg/dL
6 | insulin^FITC: FITC-labelled insulin |  |  |  |  |  |  |  |  | only weak fluorescence | 
